Entries after “also recorded” stand apart in the source; their conditions may differ. Read-outs that look alike come from different tables or passages of the source.
Key:
[1] = system: E. coli and Salmonella isolates; test: Ames mutagenicity test; format: cell-based; conditions: 1-5000 μg/plate, plate incorporation method
Experimental: In an Ames mutagenicity test, Example H-91 (1-5000 μg/plate; using the plate incorporation method and a standard panel of bacterial (E. coli and Salmonella isolates) was negative (non-mutagenic).

[2] = system: P. multocida 46572; test: In vivo mouse lung infection challenge model (murine efficacy); set-up: species or system CD-1 female mice; conditions: for Mouse Murine Percent Survival: 20 mg/kg subcutaneous, harmonized against the comparative vehicle survival rate; for clinical efficacy in murine P. multocida infection: airway tissues collected longitudinally for transcriptomic analysis
In short: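 CD-1 female mice challenged intranasally with P. multocida 46572 at mid-log phase (target 5×10^2 CFU/mouse). Compounds given subcutaneously at 20 mg/kg in buffered (~pH 5.4) propylene glycol/monothioglycerol/water. Mortality observed Days 1–10, analysed by generalized mixed model; survival harmonized against vehicle survival rate.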

[3] = system: IL-36RA; test: IL-36RA change during natural infection bovine studies; format: in vivo, cattle; conditions: H-91 0.5 mg/kg, H-11 0.1 mg/kg; for IL-36RA concentration relative to the baseline concentration after the elevation: after roughly 8 hours; for increase in IL-36RA compared to baseline: within 1 hour, FIG. 5
Experimental: (§1) Intensive sample collection was conducted over a 96-hour period in a subset of cattle treated with Example H-91 (0.5 mg/kg) or H-11 (0.1 mg/kg) in the natural bovine infection studies. […] The compounds of the invention have shown an up-regulation of IL-36RA, which then binds to IL-36R limiting the pro-inflammatory response of IL-36. In addition, the IL-8 levels from one of the natural infection studies with Example H-91, increased 270% over the course of the study for control animals. In contrast, the IL-8 levels in animals dosed with Example H-91 decreased by about 15%.

[4] = system: TNF-α; test: LPS-stimulated whole bovine blood assay, MSD cytokine detection; format: cell-based; conditions: for IC50: Bos taurus
[5] = Lactone A / lactone B equilibration in aqueous solution; format: physicochemical; conditions: pH>6 and temperatures >60° C.
Experimental: The H-11 lactones were separated by HPLC using an Agilent 1100 quaternary pump and diode array detector (250 nm) with an X-select CSH C18 column (150×4.6 mm, 2.5 μm) at 50° C. using a gradient mobile phase (mp) comprising 0.03% H2SO4 in water (mpA) and acetonitrile (mpB) over 16 minutes. Lactone A eluted at 5.8 minutes (area % 92.4) and lactone B eluted at 5.2 minutes (area % 7.6).
In an aqueous solution, Example H-11 exists as an equilibrated mixture of two lactone isomers as shown above. The ratio is approximately 9:1 lactone A:B. The rate of equilibration depends on pH and temperature, with neutral pH giving faster equilibration, pH˜5-6 giving much slower equilibration, and higher temperatures resulting in faster equilibration. Equilibration occurs in under 1-hour at pH>6 and temperatures >60° C. H-11 isomerization is a 6 exo-Trig cyclization and is a favored reaction by Baldwin's Rules. The dominant isomer, lactone-A, is a 15-membered macrocyclic lactone, while the minor isomer, lactone-B, is a 13-membered macrocyclic lactone. […]

[6] = system: IL-17 / IFN-γ producing CD4+ T helper cells; test: In vivo genomics challenge model: T helper subtypes and airway IL-17; set-up: species or system Holstein cattle
[7] = in vivo; conditions: Holstein, bovine, plasma, subcutaneous, 2.5 mg/kg
Experimental: The primary clinical endpoint for efficacy was treatment failure/success over a 14-day observation period. Clinically normal beef calves (150-200 kg) at moderate risk for BRD were dosed on arrival to the feedlot. Animals (N=114/group) received saline (T01), 5 mg/kg M9 (T02), 10 mg/kg M9 (T03) or Zactran (T04).

[8] = system: IL-8; test: IL-8 levels in cattle (natural infection and M. hemolytica challenge studies); format: in vivo; conditions: over the course of a natural infection study; control animals increased 270%
Experimental: as §1

[9] = LPS-stimulated bovine whole blood, read-out: TNF-α (IC50 μM)
[10] = LPS-stimulated whole bovine blood, read-out: TNF-α IC50

| SMILES | Ames mutagenicity test [1] | Mouse Murine Percent Survival ([2]; P. multocida challenge) [%] | clinical efficacy in murine P. multocida infection [2] | IL-36RA concentration relative to the baseline concentration after the elevation [3] [%] | increase in IL-36RA compared to baseline [3] | expression of TNF-α, LPS stimulated whole bovine blood ([4]; 4 independent studies with multiple blood donors, FIG. 4) | IC50 [4, 9] [µM] | IC50 [4, 10] [µM] | time to equilibration of the lactone isomers [5] | Th1:Th17 ratio post-treatment ([6]; 0.1 mg/kg (T02), blood at 24 and 48 hours, FIG. 9) | IL-17 levels in the airway (BAL fluid, consolidated lung tissue) ([6]; animals challenged with M. haemolytica, FIG. 10) | Cmax [7] [ng/mL] | decrease of IL-8 levels [8] | Mouse survival ([2]; positive control, 20 mg/kg, P. multocida challenge) |
| --- | --- | --- | --- | --- | --- | --- | --- | --- | --- | --- | --- | --- | --- | --- |
| CCCNC[C@]1(O)[C@H](C)O[C@@H](O[C@H]2[C@H](C)[C@@H](O[C@@H]3O[C@H](C)C[C@H](N(C)C(=O)N(C)c4ccccc4)[C@H]3O)[C@](C)(O)C[C@@H](C)CN[C@H](C)[C@@H](O)[C@](C)(O)[C@@H](CC)OC(=O)[C@@H]2C)C[C@@]1(C)OC [Example H-11, 1-((2S,3R,4S,6R)-2-(((2R,3S,4R,5R,8R,10R,11R,12S,13S,14R)-2-ethyl-3,4,10-trihydroxy-13-(((2R,4R,5S,6S)-5-hydroxy-4-methoxy-4,6-dimethyl-5-((propylamino)methyl)tetrahydro-2H-pyran-2-yl)oxy)-3,5,8,10,12,14-hexamethyl-15-oxo-1-oxa-6-azacyclopentadecan-11-yl)oxy)-3-hydroxy-6-methyltetrahydro-2H-pyran-4-yl)-1,3-dimethyl-3-phenylurea] | non-mutagenic | 36 | clinically efficacious | −55 | about 50% | dose dependent reduction | 8 | 8 | under 1 hour | increase | reduction | – | – | – |
| CCCNC[C@]1(O)[C@H](C)O[C@@H](O[C@H]2[C@H](C)[C@@H](O[C@@H]3O[C@H](C)C[C@H](N(C)C(=O)Nc4ccccc4)[C@H]3O)[C@](C)(O)C[C@@H](C)CN[C@H](C)[C@@H](O)[C@](C)(O)[C@@H](CC)OC(=O)[C@@H]2C)C[C@@]1(C)OC [Example H-91, 1-((2S,3R,4S,6R)-2-(((2R,3S,4R,5R,8R,10R,11R,12S,13S,14R)-2-ethyl-3,4,10-trihydroxy-13-(((2R,4R,5S,6S)-5-hydroxy-4-methoxy-4,6-dimethyl-5-((propylamino)methyl)tetrahydro-2H-pyran-2-yl)oxy)-3,5,8,10,12,14-hexamethyl-15-oxo-1-oxa-6-azacyclopentadecan-11-yl)oxy)-3-hydroxy-6-methyltetrahydro-2H-pyran-4-yl)-1-methyl-3-phenylurea] | negative; also recorded: non-mutagenic | 38 | clinically efficacious | −55 | about 275% | – | 85 | 90 | – | – | – | 152 | about 15% | – |
| CCCNC[C@]1(O)[C@H](C)O[C@@H](O[C@H]2[C@H](C)[C@@H](O[C@@H]3O[C@H](C)C[C@H](NC)[C@H]3O)[C@](C)(O)C[C@@H](C)CN[C@H](C)[C@@H](O)[C@](C)(O)[C@@H](CC)OC(=O)[C@@H]2C)C[C@@]1(C)OC [Example M9, (2R,3S,4R,5R,8R,10R,11R,12S,13S,14R)-2-ethyl-3,4,10-trihydroxy-13-(((2R,4R,5S,6S)-5-hydroxy-4-methoxy-4,6-dimethyl-5-((propylamino)methyl)-tetrahydro-2H-pyran-2-yl)oxy)-11-(((2S,3R,4S,6R)-3-hydroxy-6-methyl-4-(methylamino)tetrahydro-2H-pyran-2-yl)oxy)-3,5,8,10,12,14-hexamethyl-1-oxa-6-azacyclopentadecan-15-one, reference compound] | – | – | clinically efficacious | – | – | – | 250 | ~250 | – | – | – | – | – | 90-100% |
